Experimental data published in patent US20080227638A1, “Use of abscisic acid to enhance growth control” (priority 2007, published 2008).

Tests used:
Assay type in all cases: in vivo
[1] = tested on: Kentucky bluegrass cv Midnight; assay: Kentucky bluegrass cv Midnight height, ABA and trinexapac-ethyl (Example 6); conditions: 7 days after treatment
Description: (§1) Greenhouse studies were conducted at the Research Farm of Valent BioSciences Corporation (Long Grove, Ill.). Grasses were grown in pots (18 cm in diameter and 18 cm in height) filled with Promix BX (available from Premier Horticulture Inc. Quakertown, Pa.). Grass was irrigated daily by an overhead irrigation system. The irrigation system was set up with multiple Tornado Mist Spray Heads (10 GPH at 40 PSI-Wetted diameter, NDS/Raindrip, Woodland Hills, Calif.). Spray heads were 1-meter apart from each other and 75 cm above grass canopy. Grass was cut with a scissor at 2.5 cm height and fertilizer (1 g/L all purpose fertilizer 20-20-20, available from The Scotts Company, Marysville, Ohio) was applied once per week.
Chemical solutions were prepared with distilled water. Tween 20 (0.05% v/v) was used as an, adjuvant. […]
When treated with paclobutrazol or uniconazole-P, turfgrass received irrigation within 24 hours after application to flush chemicals to the root zone. […] Turfgrass quality, turfgrass height or clip fresh weight was measured on assigned dates. […] Turfgrass height was measured as the distance between canopy surface and soil. […]
All experiments were randomized complete block experimental design. Data were analyzed by analysis of variance. […]

Tall fescue, cv K-31 = assay: Tall fescue cv K-31 height, ABA and trinexapac-ethyl (Example 6)
Description: as §1
(§2) Chemical solutions were prepared with distilled water. Tween 20 (0.05% v/v) was used as an, adjuvant. Both trinexapac-ethyl (commercial product Primo Maxx, 11.3% active ingredient) and paclobutrazol (commercial product Trimmit 2SC, 22.3% active ingredient) were purchased from Syngenta Crop Protection Inc. (Greensboro, N.C.). Uniconazole-P (commercial product Sumagic, 0.55% active ingredient) was obtained from Valent U.S.A. Corporation (Walnut Creek, Calif.).
(§3) When treated with paclobutrazol or uniconazole-P, turfgrass received irrigation within 24 hours after application to flush chemicals to the root zone. After treatment, turfgrasses were arranged in a randomized complete block experimental design. Turfgrass quality, turfgrass height or clip fresh weight was measured on assigned dates. Turfgrass quality was visually rated on a 0-9 scale based on the color, uniformity and density of the grass with 0 as the worst and 9 as the best. Turfgrass height was measured as the distance between canopy surface and soil. Clips were collected from each plot; all plots were cut to a uniform height.
(§4) All experiments were randomized complete block experimental design. Data were analyzed by analysis of variance. Duncan's new multiple range tests at α=0.05 were used for mean separations.

Kentucky bluegrass [2] = assay: Greenhouse Kentucky bluegrass height and quality, ABA and paclobutrazol (Example 2); conditions: 200 ppm ABA
Description: as §1, §2, §3, §4
Kentucky bluegrass sod (unknown variety) was purchased from Deak sod farms, Inc. (Union Grove, Wis.). Grass was grown in the greenhouse in pots (n=6 pots per treatment) for establishment before treatment. […] Turfgrass quality was evaluated at 7 days after treatment, and turfgrass height was measured at 7 and 28 days after treatment. Tween 20 (0.05% w/v) was included as an adjuvant. The turfgrass canopy was cut every 7 days during the experimental period.

Kentucky bluegrass [3] = assay: Greenhouse Kentucky bluegrass height, ABA and uniconazole-P (Example 3); conditions: 200 ppm ABA
Description: as §1, §2, §3, §4
Kentucky bluegrass sod (unknown variety) was purchased from Deak sod farms, Inc. (Union Grove, Wis.). Grass was grown in the greenhouse in pots (n=6 pots per treatment) for establishment before treatment. […] Tween 20 (0.05% w/v) was included as an adjuvant. The turfgrass was cut every 7 days.

creeping bentgrass = assay: Golf course green creeping bentgrass height, clip weight and quality, ABA and uniconazole-P (Example 5); conditions: 200 ppm ABA
Description: Field studies were conducted at the nursery green or the practice green at Countryside golf course (Mundelein, Ill.). Both greens were sand based and growing Penncross creeping bentgrass. Grass was managed with typical Illinois golf course management practices.
as §2, §3, §4
Tween 20 (0.05% w/v) was included as an adjuvant.

Bermudagrass = Bermudagrass clip weight, ABA and uniconazole-P (Example 7); conditions: 200 ppm ABA; 7 days after treatment
Description: as §2, §3, §4

Compound	Turfgrass height ([1]; 80 ppm trinexapac-ethyl)	Turfgrass height ([1]; 160 ppm trinexapac-ethyl)	Turfgrass height (Tall fescue, cv K-31; 80 ppm trinexapac-ethyl, 7 days after treatment)	Turfgrass height (Tall fescue, cv K-31; 80 ppm trinexapac-ethyl, 21 days after treatment)	Turfgrass height (Tall fescue, cv K-31; 160 ppm trinexapac-ethyl, 7 days after treatment)	Turfgrass height (Tall fescue, cv K-31; 160 ppm trinexapac-ethyl, 21 days after treatment)	Turfgrass height (Kentucky bluegrass [2]; 7 days after treatment)	Turfgrass height (Kentucky bluegrass [2]; 28 days after treatment)	Turfgrass height (Kentucky bluegrass [3]; 7 days after treatment)	Turfgrass height (Kentucky bluegrass [3]; 42 days after treatment)	Clip weight (creeping bentgrass; 7 days after treatment)	Turfgrass height (creeping bentgrass; 7 days after treatment)	Clip weight (creeping bentgrass; 49 days after treatment)	Turfgrass height (creeping bentgrass; 49 days after treatment)	Clip weight (Bermudagrass)
CCOC(=O)C1CC(=O)C(=C(O)C2CC2)C(=O)C1 (stereo not drawn) [trinexapac-ethyl]	7.6 cm	6.7 cm	11.8 cm	19.8 cm	9.7 cm	20.1 cm									
S-abscisic acid [ABA]							11.7 cm	9.7 cm	12.3 cm	9.4 cm	2.0 g	5.0 cm	2.7 g	4.6 cm	1.8 g
